Results reported in PMC12150283, “Synthesis of new Ag(I) and Cd(II) hydrozanomide-based complexes with antibacterial and anticancer properties” (RSC Advances, 2025).

What was measured:
[1] = tested on: Bacillus cereus ŁOCK 0807; test: MIC determination; type: cell-based; conditions: Bacillus cereus ŁOCK 0807; 18 h
[2] = tested on: Bacillus subtilis ATCC 6633; test: MIC determination; type: cell-based; conditions: 18 h
Method in brief: (§1)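 Agar well-diffusion on Mueller–Hinton agar, inoculum 1.5 × 10^8 CFU mL^−1 (McFarland 0.5), per EUCAST. Compounds in DMSO were added to 10 mm wells, and plates were incubated 18 h at 30 °C (Bacillus subtilis) or 37 °C (others). MIC (μg mL^−1) = lowest concentration preventing growth; three independent replicates.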

[3] = tested on: Enterococcus faecalis ATCC 29212; test: MIC determination; type: cell-based; conditions: E. faecalis ATCC 29212; 18 h
Method in brief: as §1

[4] = tested on: Escherichia coli ATCC 10530; test: MIC determination; type: cell-based; conditions: Escherichia coli ATCC 10530; 18 h
Method in brief: as §1

[5] = tested on: Salmonella typhimurium ATCC 14028; test: MIC determination; type: cell-based; conditions: S. typhimurium ATCC 14028, 18 h
Method in brief: as §1

[6] = tested on: Staphylococcus aureus ATCC 25923; test: MIC determination; type: cell-based; conditions: S. aureus ATCC 25923, 18 h
Method in brief: as §1

[7] = tested on: Staphylococcus aureus ATCC 6538; test: MIC determination; type: cell-based; conditions: S. aureus ATCC 6538; 18 h
Method in brief: as §1

[8] = tested on: Staphylococcus epidermidis ATCC 12228; test: MIC determination; type: cell-based; conditions: S. epidermidis ATCC 12228; 18 h
Method in brief: as §1

[9] = tested on: S. epidermidis ATCC 12228; test: Diffusion-well method, inhibition zones; type: cell-based, Staphylococcus epidermidis; conditions: 500 µg/mL, wells 10 mm
Procedure: (§2) The antibacterial activity of tested samples was assessed against both gram-positive bacteria (Staphylococcus aureus ATCC 25923, Staphylococcus aureus ATCC 6538, Staphylococcus epidermidis ATCC 12228, Enterococcus faecalis ATCC 29212, Listeria monocytogenes ATCC 19115, Bacillus subtilis ATCC 6633, Bacillus cereus ATCC 10876) and gram-negative bacteria (Escherichia coli ATCC 10530, Salmonella typhimurium ATCC 14028). Antibacterial properties were evaluated using both the dilution method (employing DMSO and 96-well plates) and the diffusion-well method (using Mueller Hinton Agar, Merck, Germany).
(§3) 24 hour bacterial cultures with a density of 1–2 × 10^8 CFU mL^−1 were plated (0.1 mL) on Mueller–Hinton Agar (Merck, Germany). Subsequently, wells with a diameter of 10 mm were cut out from and filled with 100 μL of the tested compound at a concentration of 10–500 μg mL^−1 (diluted in DMSO). After an 18-hour incubation at either 30 °C (for Bacillus ssp.) or 37 °C (for other tested microorganisms), the inhibition zones around the wells were measured, and the results were expressed in millimetres (Table S9 ^†).

B. cereus ŁOCK 0807 = test: Diffusion-well method, inhibition zones; type: cell-based, Bacillus cereus; conditions: 500 µg/mL, wells 10 mm
E. coli ATCC 10530 = test: Diffusion-well method, inhibition zones; type: cell-based, Escherichia coli; conditions: 500 µg/mL, wells 10 mm
Procedure: as §2, §3

NC(=NN=Cc1ccccc1)c1cncc(Cl)n1.O.O=[N+]([O-])[O-].[Ag+] [Complex 1, AgL1NO3 × H2O]
MIC [1]: 50 µg/mL
MIC [2]: 50 µg/mL
MIC [3]: 50 µg/mL
MIC [4]: < 10 µg/mL
MIC [5]: < 10 µg/mL
MIC ([5]; listed as 1): <10 µg/mL
MIC [6]: < 10 µg/mL
MIC ([6]; listed as 1): <10 µg/mL
MIC [7]: < 10 µg/mL
MIC [8]: 10 µg/mL
Inhibition zone [9]: 18 mm
Inhibition zone (B. cereus ŁOCK 0807): 17 mm
Inhibition zone (E. coli ATCC 10530): 20 mm
